Laboratory results taken from patent publication US7989394B2, “Substituted 1-(azolin-2-yl)-amino-2-aryl-1-hetaryl-ethane compounds” (BASF SE, priority 2006, dated 2011).

Legend:
[1] = tested on: Cotton Aphid (Aphis gossypii); test: Cotton aphid (Aphis gossypii) mortality on dipped cotton plants; assay type: in vivo; conditions: 120 h, cotton cotyledons dipped, aphid mortality after 5 days, read-out: mortality in comparison with untreated controls
Protocol: I. Cotton Aphid (Aphis gossypii)
(§1) Cotton plants in the cotyledon stage (variety ‘Delta Pine’) are infested with approximately 100 laboratory-reared aphids by placing infested leaf sections on top of the test plants. The leaf sections are removed after 24 hours. The cotyledons of the intact plants are dipped into gradient solutions of the test compound. Aphid mortality on the treated plants, relative to mortality on check plants, is determined after 5 days.

[2] = tested on: Green Peach Aphid (Myzus persicae); test: Green peach aphid (Myzus persicae) mortality on dipped pepper plants; assay type: in vivo; conditions: 120 h, pepper leaves dipped, aphid mortality after 5 days, read-out: mortality in comparison with untreated controls
Protocol: II. Green Peach Aphid (Myzus persicae)
as §1, with “Pepper” for “Cotton”, “2nd leaf-pair” for “cotyledon”, “‘California Wonder’)” for “‘Delta Pine’)”, “40” for “100”, “leaves” for “cotyledons”

SMILES: Cc1cc(C)cc(CC(NC2=NCCS2)c2ccco2)c1 (racemic) [Example 23, (4,5-Dihydro-thiazol-2-yl)-[2-(3,5-dimethyl-phenyl)-1-furan-2-yl-ethyl]-amine]
- mortality at 300 ppm [1]: > 70%
- mortality at 300 ppm [2]: > 70%

SMILES: Cc1cc(C)cc(CC(NC2=NCCS2)c2cccs2)c1 (racemic) [Example 22, (4,5-Dihydro-thiazol-2-yl)-[2-(3,5-dimethyl-phenyl)-1-thien-2-yl-ethyl]-amine]
- mortality at 300 ppm [1]: > 70%
- mortality at 300 ppm [2]: > 70%

SMILES: Cc1cc(C)cc(CC(NC(=S)NCCO)c2cccs2)c1 (racemic) [Example 6, 1-[2-(3,5-Dimethyl-phenyl)-1-thien-2-yl-ethyl]-3-(2-hydroxy-ethyl)-thiourea]
- mortality at 300 ppm [1]: > 70%
- mortality at 300 ppm [2]: > 70%
